The values below are quoted from earlier work in article PMC3433420 (PLoS ONE, 2012).

Like-named read-outs stand apart in the source and are kept apart here.

In the data set the target is SH2 and PTB domains. Particulars: cited from earlier work. An excerpt: Supplement pone.0044471.s022.xlsx, sheet "Most recent PM interactions" | column: Kd || Supplement pone.0044471.s022.xlsx, sheet "All original PM interactions" | column: Kd

What is called Kd is a measure of binding affinity in units of concentration. As for “AEDEpYVNEPLYLd [ErbB4 pY1202, N-terminally rhodamine-labeled 13-mer phosphopeptide]”, the Kd (protein SYK-N, ref Kaushansky et al. Chem and Biol 2008) was 6 nM.
Turning to ALESILHRIpYTHQSDVWd [ErbB1 891], the Kd reads like this: (Protein HSH2D, most recent PM interactions, ref Kaushansky et al. Mol Biosys 2008) 1130 nM; (Protein TNS4, most recent PM interactions, ref Kaushansky et al. Mol Biosys 2008) 300 nM.
For “DADEpYLIPQQGFd [ErbB1 pY1016, N-terminally rhodamine-labeled 13-mer phosphopeptide]”, the Kd (protein ABL2, ref Jones et al. 2006 / Kaushansky et al. Mol Biosys 2008 / Kaushansky et al. Chem and Biol 2008) was 280 nM; the Kd (protein BLK, ref Jones et al. 2006 / Kaushansky et al. Mol Biosys 2008 / Kaushansky et al. Chem and Biol 2008) is 660 nM; the Kd (protein CRK, ref Jones et al. 2006 / Kaushansky et al. Mol Biosys 2008 / Kaushansky et al. Chem and Biol 2008) was 470 nM; the Kd (protein CRKL, ref Jones et al. 2006 / Kaushansky et al. Mol Biosys 2008 / Kaushansky et al. Chem and Biol 2008) was 1000 nM; the Kd (protein NCK1, ref Jones et al. 2006 / Kaushansky et al. Mol Biosys 2008 / Kaushansky et al. Chem and Biol 2008) is 1000 nM; the Kd (protein NCK2, ref Jones et al. 2006 / Kaushansky et al. Mol Biosys 2008 / Kaushansky et al. Chem and Biol 2008) was 2000 nM. Further, the Kd by setting is: (protein PIK3R1-C, ref Jones et al. 2006 / Kaushansky et al. Mol Biosys 2008 / Kaushansky et al. Chem and Biol 2008) 870 nM; (protein PIK3R1-N, ref Jones et al. 2006 / Kaushansky et al. Mol Biosys 2008 / Kaushansky et al. Chem and Biol 2008) 650 nM; (protein PIK3R1-NC, ref Jones et al. 2006 / Kaushansky et al. Mol Biosys 2008 / Kaushansky et al. Chem and Biol 2008) 300 nM; (protein PIK3R2-N, ref Jones et al. 2006 / Kaushansky et al. Mol Biosys 2008 / Kaushansky et al. Chem and Biol 2008) 430 nM; (protein PIK3R2-NC, ref Jones et al. 2006 / Kaushansky et al. Mol Biosys 2008 / Kaushansky et al. Chem and Biol 2008) 350 nM; (protein PIK3R3-C, ref Jones et al. 2006 / Kaushansky et al. Mol Biosys 2008 / Kaushansky et al. Chem and Biol 2008) 190 nM. Also, the Kd (protein PIK3R3-N, ref Jones et al. 2006 / Kaushansky et al. Mol Biosys 2008 / Kaushansky et al. Chem and Biol 2008) is 470 nM; the Kd (protein PIK3R3-NC, ref Jones et al. 2006 / Kaushansky et al. Mol Biosys 2008 / Kaushansky et al. Chem and Biol 2008) was 200 nM; the Kd (protein PLCG1-C, ref Jones et al. 2006 / Kaushansky et al. Mol Biosys 2008 / Kaushansky et al. Chem and Biol 2008) is 2000 nM; the Kd (protein PLCG1-NC, ref Jones et al. 2006 / Kaushansky et al. Mol Biosys 2008 / Kaushansky et al. Chem and Biol 2008) is 790 nM; the Kd (protein PLCG2-NC, ref Jones et al. 2006 / Kaushansky et al. Mol Biosys 2008 / Kaushansky et al. Chem and Biol 2008) is 2000 nM; the Kd (protein PTPN11-N, ref Jones et al. 2006 / Kaushansky et al. Mol Biosys 2008 / Kaushansky et al. Chem and Biol 2008) is 380 nM. The Kd is 770 nM (protein RASA1-N, ref Jones et al. 2006 / Kaushansky et al. Mol Biosys 2008 / Kaushansky et al. Chem and Biol 2008); 1420 nM (protein RASA1-NC, ref Jones et al. 2006 / Kaushansky et al. Mol Biosys 2008 / Kaushansky et al. Chem and Biol 2008); 2000 nM (protein SH2D3A, ref Jones et al. 2006 / Kaushansky et al. Mol Biosys 2008 / Kaushansky et al. Chem and Biol 2008); 2000 nM (protein SH2D3C, ref Jones et al. 2006 / Kaushansky et al. Mol Biosys 2008 / Kaushansky et al. Chem and Biol 2008); 1990 nM (protein SHB, ref Jones et al. 2006 / Kaushansky et al. Mol Biosys 2008 / Kaushansky et al. Chem and Biol 2008); 630 nM (protein SHC1-PTB, ref Jones et al. 2006 / Kaushansky et al. Mol Biosys 2008 / Kaushansky et al. Chem and Biol 2008). Besides, the Kd was 660 nM (protein SHC2-PTB, ref Jones et al. 2006 / Kaushansky et al. Mol Biosys 2008 / Kaushansky et al. Chem and Biol 2008); 220 nM (protein SHC3, ref Jones et al. 2006 / Kaushansky et al. Mol Biosys 2008 / Kaushansky et al. Chem and Biol 2008); 2000 nM (protein SLA, ref Jones et al. 2006 / Kaushansky et al. Mol Biosys 2008 / Kaushansky et al. Chem and Biol 2008); 930 nM (protein SYK-C, ref Jones et al. 2006 / Kaushansky et al. Mol Biosys 2008 / Kaushansky et al. Chem and Biol 2008); 530 nM (protein SYK-NC, ref Jones et al. 2006 / Kaushansky et al. Mol Biosys 2008 / Kaushansky et al. Chem and Biol 2008); 2000 nM (protein TENC1, ref Jones et al. 2006 / Kaushansky et al. Mol Biosys 2008 / Kaushansky et al. Chem and Biol 2008). Besides, the Kd runs as follows: (protein TNS4, ref Jones et al. 2006 / Kaushansky et al. Mol Biosys 2008 / Kaushansky et al. Chem and Biol 2008) 920 nM; (protein VAV1, ref Jones et al. 2006 / Kaushansky et al. Mol Biosys 2008 / Kaushansky et al. Chem and Biol 2008) 1050 nM; (protein VAV2, ref Jones et al. 2006 / Kaushansky et al. Mol Biosys 2008 / Kaushansky et al. Chem and Biol 2008) 2000 nM; (protein VAV3, ref Jones et al. 2006 / Kaushansky et al. Mol Biosys 2008 / Kaushansky et al. Chem and Biol 2008) 2000 nM.
